Key:
[1] = system: 3T3-L1 mouse fibroblasts; assay: Nile red assay of cellular lipid content during adipogenesis; type: cell-based; conditions: for Lipid content: treatment D0-D2, read on D6, stimulated untreated cells = 100%, unstimulated = 0%; for IC50: Mus musculus, 3T3-L1, 144 h, treatment for the entire 6-day adipocyte differentiation (D0-D6), read-out: IC50 value for the inhibition of cellular lipid accumulation
Protocol: The 3T3-L1 mouse fibroblasts were cultivated in Dulbecco's modified Eagle's medium (DMEM) incl. 10% foetal calf serum (FCS) and 2 mM L-glutamine at 37° C., 95% humidity and 5% CO2.
Adipocyte differentiation and maturation was induced as described (Yang J. Y. et al., Obesity 2008, 16, 16-22; Shugart E. C. and Umek R. M., Cell Growth & Differentiation 1997, 8, 1091-1098). The cells were stimulated not only with dexamethasone, as is generally conventional, but also with cortisol, which is more physiological.
The cells were seeded into 96-well plates and cultivated to confluence. Two days after reaching cell confluence (D0=day 0), cell differentiation was induced by adding DMEM with 10% FCS, 167 nM insulin, […] and 1 μM dexamethasone or 200 nM cortisol for two days (D2). The cells were then cultivated for a further two days in DMEM with 10% FCS and 167 nM insulin (D4), followed by cultivation in DMEM/10% FCS for a further four days (D8). Ultimately, >20-30% of the cells were mature adipocytes with accumulated lipid stores.
As an indicator for the degree of adipogenesis, the lipid content of the cells (intracellular lipid droplets) was detected by means of the lipophilic colour reagent Nile red, as described (Yang J. Y. et al., Obesity 2008, 16, 16-22; Greenspan P., The Journal of Cell Biology 1985, 100, 965-973). 3T3-L1 cells (5,000-10,000 cells/well), after reaching confluence, were cultivated for a further two days in 96-well plates (D0). The cells were then treated with guggulsterone and/or glycyrrhetinic acid, individually or in combination, for days D0-D2, D2-D4, D4-D6 and D0-D6 of the adipogenesis (concentration range: 1-200 μM). The medium, with or without test substance(s), was changed or renewed every two days. Cells treated as follows served as controls: (1) pure cell culture medium (undifferentiated control), (2) pure differentiation medium (untreated control), and (3) DMSO, corresponding to the highest DMSO concentration in the test batches, in differentiation medium (DMSO control).
On day 6 (D6), the intracellular lipid accumulation (lipid droplets) was quantified by means of a Nile red assay. To that end, the cell medium was discarded and the cells were washed with 100 μl/well of PBS (pH 7.4). The cells were then incubated for 20 minutes at room temperature with 50 μl/well of Nile red in PBS (10 μg/ml). The lipid content was determined fluorometrically using a Synergy 2 plate reader (BioTek, Winooski, USA) (excitation: 485 nm, emission: 560 nm, mirror: 550 nm). Nile red selectively stains neutral lipids, for example triacylglycerides in intracellular droplets.
The lipid content, that is to say the storage of triacylglycerides in intracellular lipid droplets, is an indicator for the degree of adipogenesis. […] Since the staining reagent Nile red, upon excitation at 485 nm and fluorescence detection at 560 nm, is very selective for neutral lipids, it was thus possible specifically to measure the intracellular accumulation of triacylglycerides during advancing adipogenesis.
On day 6 of the adipogenesis (D6), the accumulation of intracellular lipid droplets was measured fluorometrically by means of a Nile red assay (excitation: 485 nm; emission: 560 nm; 550 nm mirror). The data were normalised and the lipid accumulation is given in percent; unstimulated cells were used as 0% reference, and stimulated but untreated cells were used as 100% reference.

[2] = Resazurin-based cell viability assay; design: species or system mouse; conditions: mouse, mature 3T3-L1 adipocytes; 250 μM (of each compound), 24-hour treatment, 1 μM dexamethasone stimulation; read-out: reduction of cell viability (number of mature adipocytes)
Protocol: (§1) The cell viability of mature adipocytes after treatment with a test compound was measured by means of a fluorimetric Resazurin-based assay. Vital, that is to say metabolically active, cells are capable of converting Resazurin into the fluorescent derivative Resorufin (Strotmann U. J. et al., Ecotox. Environ. Safety 1993, 25, 79-89). 3T3-L1 cells were seeded into 96-well plates (5,000-10,000 cells/well) and, as described above, cultivated to maturity (D8). […] Cells treated as follows served as controls: (1) pure cell culture medium (undifferentiated control), (2) pure differentiation medium (untreated control), (3) DMSO, corresponding to the highest DMSO concentration in the test batches, in differentiation medium (DMSO control), and (4) 150 μg/ml digitonin in DMEM (cell death control). After 24 hours, the incubation medium was discarded and the cells were washed with 100 μl/well of DMEM and then incubated for 2 hours under standard culture conditions with 50 μl/well of Resazurin solution (60 μM in DMEM). Finally, the Resorufin fluorescence was detected by means of a Synergy 2 plate reader (BioTek, Winooski, USA) (excitation: 540 nm, emission: 590 nm, mirror: 550 nm). […] Finally, the cell viability, as a measure of the number and fitness of the cells, was measured by means of a Resazurin assay.

[3] = system: caspases 3/7; assay: Caspase-Glo 3/7 apoptosis assay in mature adipocytes; type: cell-based, mouse; conditions: 24 hours
Protocol: In order to evaluate a possible induction of apoptosis in mature adipocytes as a result of the treatment with (Z)-guggulsterone and/or glycyrrhetinic acid, a Caspase-Glo® 3/7 assay kit (Promega, Mannheim, Germany) was used.
3T3-L1 cells were seeded into 96-well plates (5,000-10,000 cells/well) and, as described above, cultivated to maturity (D8). On D8, the mature adipocytes were incubated for 24 hours under standard culture conditions with guggulsterone and/or glycyrrhetinic acid (1-250 μM). Cells treated as follows served as controls: (1) pure cell culture medium (undifferentiated control), (2) pure differentiation medium (untreated control), and (3) DMSO, corresponding to the highest DMSO concentration in the test batches, in differentiation medium (DMSO control). After 24 hours, the incubation medium was discarded, the cells were washed with 100 μl/well of DMEM, and then 150 μl/well of Caspase-Glo® 3/7 reagent in DMEM (1:1, v/v) were added. After incubation for 2 hours at room temperature, the luminescence signal of the reagent was detected by means of a Synergy 2 plate reader (BioTek, Winooski, USA).
The combination of 250 μM of each of the two compounds brought about an increase in caspase 3/7 activity by a factor of 3.5-4.0 as compared with untreated cells (FIG. 2).

[4] = system: 3T3 pre-adipocytes; assay: Fluorescence microscopy of lipid droplets (Nile red/DAPI); type: cell-based, mouse; conditions: 100 μM, D0-D6, stimulation with 1 μM dexamethasone
Protocol: […] The incubation medium was then discarded and the cells were washed with PBS and stained with Nile red (10 μg/ml) and DAPI (1 μg/ml) in 50 μl/well of PBS for 20 minutes at room temperature. After removal of the staining solution, the cells were washed with PBS and fixed with 4% paraformaldehyde in PBS for 30 minutes at room temperature. Finally, the cells were washed three times with PBS and mounted on the object slide by means of Fluorescence Mounting Medium (Dako, Carpinteria, USA). The fluorescence microscopy images were taken by using a Zeiss Axio Observer.Z1 with ApoTome (Carl Zeiss Microlmaging, Jena, Germany) using the DAPI and GFP filter settings.

[5] = system: mature 3T3 adipocytes; assay: Resazurin-based cell viability assay; design: species or system mouse; conditions: up to 250 μM, 24-hour treatment, 1 μM dexamethasone stimulation
Protocol: as §1

[6] = cited from earlier work

| Molecule | Lipid content ([1]; 10 μM) [%] | Lipid content ([1]; 40 μM) [%] | Lipid content ([1]; 100 μM) [%] | IC50 [1] [µM] | cytotoxicity at 24 h, 250 μM [2] [%] | increase in caspase 3/7 activity as compared with untreated cells ([3]; 250 μM (of each compound)) | lipid droplets versus stimulated untreated cells [4] | effect on cell viability [5] | induction of caspases 3/7 ([3]; dexamethasone or cortisol stimulation) | systemic administration that is not safe [6] |
| --- | --- | --- | --- | --- | --- | --- | --- | --- | --- | --- |
| CC1(C)[C@@H](O)CC[C@]2(C)[C@H]3C(=O)C=C4[C@@H]5C[C@@](C)(C(=O)O)CC[C@]5(C)CC[C@@]4(C)[C@]3(C)CC[C@@H]12 [18β-glycyrrhetinic acid] | 98 | 91 | 7 | ~20 | 28 | 2.5-3.0 factor | significantly fewer and smaller lipid droplets |  |  |  |
| C/C=C1\C(=O)C[C@H]2[C@@H]3CCC4=CC(=O)CC[C@]4(C)[C@H]3CC[C@]12C [(Z)-guggulsterone] | 71 | 26 | 5 | ~5 |  |  | significantly fewer and smaller lipid droplets | did not impair the cell viability | no induction of caspases 3/7 |  |
| guggulsterone |  |  |  |  |  |  |  |  |  | more than 30 mg/day |
